pIC50: −log10 of the molar value.

Chain of Apolipoprotein B-100 (P04114 whole entry C1422Y): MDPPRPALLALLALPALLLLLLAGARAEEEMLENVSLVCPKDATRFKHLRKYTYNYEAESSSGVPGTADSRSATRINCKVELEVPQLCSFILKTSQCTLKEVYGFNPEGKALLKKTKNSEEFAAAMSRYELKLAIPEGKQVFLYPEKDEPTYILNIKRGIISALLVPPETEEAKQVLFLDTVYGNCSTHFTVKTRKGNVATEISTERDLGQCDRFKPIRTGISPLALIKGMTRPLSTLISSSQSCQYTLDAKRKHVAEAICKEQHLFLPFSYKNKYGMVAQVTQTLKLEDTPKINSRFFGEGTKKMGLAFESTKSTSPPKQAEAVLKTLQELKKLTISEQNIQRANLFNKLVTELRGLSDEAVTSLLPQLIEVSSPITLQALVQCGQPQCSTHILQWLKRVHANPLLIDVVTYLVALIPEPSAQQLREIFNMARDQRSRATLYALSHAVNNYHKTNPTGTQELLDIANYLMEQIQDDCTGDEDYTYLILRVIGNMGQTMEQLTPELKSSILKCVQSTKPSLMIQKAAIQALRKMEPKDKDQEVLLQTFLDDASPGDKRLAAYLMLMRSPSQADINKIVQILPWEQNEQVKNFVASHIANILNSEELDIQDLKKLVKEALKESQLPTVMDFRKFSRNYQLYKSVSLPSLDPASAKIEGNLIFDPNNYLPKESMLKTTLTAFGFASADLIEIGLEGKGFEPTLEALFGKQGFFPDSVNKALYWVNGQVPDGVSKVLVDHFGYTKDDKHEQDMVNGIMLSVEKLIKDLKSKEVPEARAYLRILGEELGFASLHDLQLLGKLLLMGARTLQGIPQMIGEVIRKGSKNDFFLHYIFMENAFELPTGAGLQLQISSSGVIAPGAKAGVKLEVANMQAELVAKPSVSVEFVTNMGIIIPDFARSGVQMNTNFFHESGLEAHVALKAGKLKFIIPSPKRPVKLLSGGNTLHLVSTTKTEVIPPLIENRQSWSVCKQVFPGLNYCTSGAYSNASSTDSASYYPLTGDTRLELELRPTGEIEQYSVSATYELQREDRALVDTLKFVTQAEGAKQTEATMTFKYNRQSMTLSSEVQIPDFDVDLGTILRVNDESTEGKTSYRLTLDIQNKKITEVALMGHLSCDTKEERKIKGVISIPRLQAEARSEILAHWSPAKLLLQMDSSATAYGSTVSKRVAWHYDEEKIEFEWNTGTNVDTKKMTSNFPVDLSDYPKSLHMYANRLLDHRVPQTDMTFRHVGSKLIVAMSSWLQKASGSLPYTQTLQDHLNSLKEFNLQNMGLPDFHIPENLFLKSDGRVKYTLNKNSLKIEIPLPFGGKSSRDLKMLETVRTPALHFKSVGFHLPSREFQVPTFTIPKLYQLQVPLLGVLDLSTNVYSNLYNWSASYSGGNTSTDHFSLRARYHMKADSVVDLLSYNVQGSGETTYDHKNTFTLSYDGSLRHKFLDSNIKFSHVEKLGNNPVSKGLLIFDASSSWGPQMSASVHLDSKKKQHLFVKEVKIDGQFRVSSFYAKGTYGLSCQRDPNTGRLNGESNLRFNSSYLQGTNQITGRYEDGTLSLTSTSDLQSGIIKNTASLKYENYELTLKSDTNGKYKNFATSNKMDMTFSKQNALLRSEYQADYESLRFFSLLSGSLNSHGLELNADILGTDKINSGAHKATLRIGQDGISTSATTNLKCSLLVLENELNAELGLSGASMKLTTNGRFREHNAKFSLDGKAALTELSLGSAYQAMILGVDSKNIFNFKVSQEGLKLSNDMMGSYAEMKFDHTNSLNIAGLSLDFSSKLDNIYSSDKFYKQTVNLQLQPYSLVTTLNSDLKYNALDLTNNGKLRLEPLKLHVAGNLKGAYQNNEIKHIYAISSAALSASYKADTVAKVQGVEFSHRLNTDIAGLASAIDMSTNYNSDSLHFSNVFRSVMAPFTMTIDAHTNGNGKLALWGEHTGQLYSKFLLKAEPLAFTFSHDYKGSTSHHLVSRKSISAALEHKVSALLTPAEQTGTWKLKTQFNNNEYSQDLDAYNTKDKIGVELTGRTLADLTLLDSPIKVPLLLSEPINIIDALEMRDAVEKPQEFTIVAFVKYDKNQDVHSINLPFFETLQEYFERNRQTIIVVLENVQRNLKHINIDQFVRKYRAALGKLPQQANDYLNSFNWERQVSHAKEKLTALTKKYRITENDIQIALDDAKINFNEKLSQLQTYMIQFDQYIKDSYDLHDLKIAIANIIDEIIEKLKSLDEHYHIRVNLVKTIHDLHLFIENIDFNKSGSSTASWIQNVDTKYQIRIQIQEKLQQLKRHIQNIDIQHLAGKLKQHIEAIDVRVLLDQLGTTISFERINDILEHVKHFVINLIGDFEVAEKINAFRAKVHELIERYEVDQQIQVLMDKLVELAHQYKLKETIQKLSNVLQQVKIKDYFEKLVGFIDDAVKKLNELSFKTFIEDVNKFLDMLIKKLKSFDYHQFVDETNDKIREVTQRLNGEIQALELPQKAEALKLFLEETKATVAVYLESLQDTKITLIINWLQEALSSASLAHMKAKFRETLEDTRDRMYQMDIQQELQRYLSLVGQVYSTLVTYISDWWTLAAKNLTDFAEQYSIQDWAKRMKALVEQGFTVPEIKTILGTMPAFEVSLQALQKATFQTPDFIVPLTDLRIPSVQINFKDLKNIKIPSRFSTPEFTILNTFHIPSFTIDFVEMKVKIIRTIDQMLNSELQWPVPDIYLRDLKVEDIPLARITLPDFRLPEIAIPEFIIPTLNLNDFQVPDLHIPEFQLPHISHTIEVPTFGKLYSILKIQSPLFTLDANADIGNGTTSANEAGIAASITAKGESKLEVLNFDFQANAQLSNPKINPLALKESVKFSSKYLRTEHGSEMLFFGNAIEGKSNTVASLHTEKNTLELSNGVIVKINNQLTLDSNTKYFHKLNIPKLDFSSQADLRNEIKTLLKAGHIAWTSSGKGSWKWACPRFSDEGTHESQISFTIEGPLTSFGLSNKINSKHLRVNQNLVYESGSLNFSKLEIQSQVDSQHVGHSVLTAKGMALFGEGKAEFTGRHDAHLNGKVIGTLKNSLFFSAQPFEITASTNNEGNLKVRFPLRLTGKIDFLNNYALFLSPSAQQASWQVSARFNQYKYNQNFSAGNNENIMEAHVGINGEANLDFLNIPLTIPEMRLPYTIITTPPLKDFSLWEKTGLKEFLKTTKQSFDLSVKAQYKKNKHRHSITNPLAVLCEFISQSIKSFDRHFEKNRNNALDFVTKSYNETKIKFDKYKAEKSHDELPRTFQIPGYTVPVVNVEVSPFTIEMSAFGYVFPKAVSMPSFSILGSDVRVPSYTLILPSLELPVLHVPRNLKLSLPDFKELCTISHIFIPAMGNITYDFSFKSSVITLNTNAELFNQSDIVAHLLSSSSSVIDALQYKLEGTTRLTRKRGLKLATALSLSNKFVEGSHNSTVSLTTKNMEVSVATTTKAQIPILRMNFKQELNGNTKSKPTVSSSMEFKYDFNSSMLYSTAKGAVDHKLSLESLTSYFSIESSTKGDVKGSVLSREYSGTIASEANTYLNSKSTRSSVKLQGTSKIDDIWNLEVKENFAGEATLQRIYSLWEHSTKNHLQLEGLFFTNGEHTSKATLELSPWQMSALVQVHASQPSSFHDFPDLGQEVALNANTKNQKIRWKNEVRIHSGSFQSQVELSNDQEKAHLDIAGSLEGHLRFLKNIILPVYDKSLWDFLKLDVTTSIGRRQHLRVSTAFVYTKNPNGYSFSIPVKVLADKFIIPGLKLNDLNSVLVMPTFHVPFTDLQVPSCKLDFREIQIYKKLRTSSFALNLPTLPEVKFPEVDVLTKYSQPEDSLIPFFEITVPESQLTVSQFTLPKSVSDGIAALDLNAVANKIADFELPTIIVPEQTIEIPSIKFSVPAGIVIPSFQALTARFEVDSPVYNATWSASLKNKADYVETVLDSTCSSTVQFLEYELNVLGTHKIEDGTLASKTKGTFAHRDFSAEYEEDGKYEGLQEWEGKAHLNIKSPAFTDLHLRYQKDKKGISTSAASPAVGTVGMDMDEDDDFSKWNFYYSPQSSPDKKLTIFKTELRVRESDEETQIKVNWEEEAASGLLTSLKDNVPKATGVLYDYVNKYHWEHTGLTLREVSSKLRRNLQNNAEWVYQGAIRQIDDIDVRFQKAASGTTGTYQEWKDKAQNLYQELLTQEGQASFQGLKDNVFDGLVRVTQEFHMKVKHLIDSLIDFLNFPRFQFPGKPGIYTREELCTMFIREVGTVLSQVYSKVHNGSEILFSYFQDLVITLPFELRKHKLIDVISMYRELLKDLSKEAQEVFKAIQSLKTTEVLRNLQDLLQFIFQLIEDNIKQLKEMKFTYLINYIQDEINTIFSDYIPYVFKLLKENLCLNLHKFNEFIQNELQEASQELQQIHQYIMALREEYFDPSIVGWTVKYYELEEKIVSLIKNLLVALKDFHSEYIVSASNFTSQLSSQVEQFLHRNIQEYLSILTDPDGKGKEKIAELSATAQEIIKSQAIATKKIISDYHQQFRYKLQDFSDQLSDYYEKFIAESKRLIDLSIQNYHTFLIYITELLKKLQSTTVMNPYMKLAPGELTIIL

This test has as its target Apolipoprotein B-100 (Homo sapiens, UniProt P04114). The test can be described thus: Inhibition of apolipoprotein B (apoB) secreted by human hepatoma cells (Hep G2) […].
For the compound `COC(=O)NC1CCc2ccc(NC(=O)c3cc(C)cc(C)c3-c3ccc(C(F)(F)F)cc3)cc2CC1` (centres undefined) [{2-[(4,6-Dimethyl-4'-trifluoromethyl-biphenyl-2-carbonyl)-amino]-6,7,8,9-tetrahydro-5H-benzocyclohepten-7-yl}-carbamic acid methyl ester], the pIC50 (in general, −log10 of the IC50, conventionally taken in molar units) was 8.62.
`COC(=O)NC1CCc2ccc(NC(=O)c3cccc(C)c3-c3ccc(C(F)(F)F)cc3)cc2CC1` (centres undefined) [{2-[(6-Methyl-4'-trifluoromethyl-biphenyl-2-carbonyl)-amino]-6,7,8,9-tetrahydro-5H-benzocyclohepten-7-yl}-carbamic acid methyl ester] gave a pIC50 of 8.80.
In the case of `COC(=O)NC1Cc2ccc(NC(=O)c3cc(C)cc(C)c3-c3ccc(Cl)cc3)cc2C1` (centres undefined) [{5-[(4'-Chloro-4,6-dimethyl-biphenyl-2-carbonyl)-amino]-indan-2-yl}-carbamic acid methyl ester] it was 8.47.
In the case of `COC(=O)NCC1Cc2ccc(NC(=O)c3cccc(C)c3-c3ccc(Cl)cc3)cc2C1` (centres undefined) [{5-[(4'-Chloro-6-methyl-biphenyl-2-carbonyl)-amino]-indan-2-ylmethyl}-carbamic acid methyl ester] it was 8.06; in that of `COC(=O)N[C@@H]1Cc2ccc(NC(=O)c3ccccc3-c3ccc(C(F)(F)F)cc3)cc2C1` [{5-[(4'-Trifluoromethyl-biphenyl-2-carbonyl)-amino]-indan-2-yl}-carbamic acid methyl ester], 8.28; in that of `COC(=O)N[C@H]1Cc2ccc(NC(=O)c3ccccc3-c3ccc(C(F)(F)F)cc3)cc2C1` [{5-[(4'-Trifluoromethyl-biphenyl-2-carbonyl)-amino]-indan-2-yl}-carbamic acid methyl ester], 8.72.
The figure for `COC(=O)N[C@H]1Cc2ccc(NC(=O)c3cc(C(F)(F)F)ccc3-c3ccc(C(F)(F)F)cc3)cc2C1` [{5-[(4,4'-Bis-trifluoromethyl-biphenyl-2-carbonyl)-amino]-indan-2-yl}-carbamic acid methyl ester] is 8.12; for `COC(=O)NCC1Cc2ccc(NC(=O)c3cc(C)cc(C)c3-c3ccc(C(F)(F)F)cc3)cc2C1` (centres undefined) [{5-[(4,6-Dimethyl-4'-trifluoromethyl-biphenyl-2-carbonyl)-amino]-indan-2-ylmethyl}-carbamic acid methyl ester] it is 8.66; for `COC(=O)N[C@@H]1Cc2ccc(NC(=O)c3cc(C)cc(C)c3-c3ccc(C(F)(F)F)cc3)cc2C1` [{5-[(4,6-Dimethyl-4'-trifluoromethyl-biphenyl-2-carbonyl)-amino]-indan-2-yl}-carbamic acid methyl ester] it is 8.60.
`COC(=O)N[C@H]1Cc2ccc(NC(=O)c3cc(C)cc(C)c3-c3ccc(C(F)(F)F)cc3)cc2C1` [{5-[(4,6-Dimethyl-4'-trifluoromethyl-biphenyl-2-carbonyl)-amino]-indan-2-yl}-carbamic acid methyl ester] gave a pIC50 of 8.96.
In the case of `COC(=O)N[C@H]1Cc2ccc(NC(=O)c3cc(C)ccc3-c3ccc(C(F)(F)F)cc3)cc2C1` [{5-[(4-Methyl-4'-trifluoromethyl-biphenyl-2-carbonyl)-amino]-indan-2-yl}-carbamic acid methyl ester] it was 8.66.
Compound `COC(=O)N[C@H]1Cc2ccc(NC(=O)c3cccc(C(F)(F)F)c3-c3ccc(C(F)(F)F)cc3)cc2C1` [{5-[(6,4'-Bis-trifluoromethyl-biphenyl-2-carbonyl)-amino]-indan-2-yl}-carbamic acid methyl ester] gave a pIC50 of 8.74.
In the case of `COC(=O)NCC1Cc2ccc(NC(=O)c3cccc(C)c3-c3ccc(C(F)(F)F)cc3)cc2C1` (centres undefined) [{5-[(6-Methyl-4'-trifluoromethyl-biphenyl-2-carbonyl)-amino]-indan-2-ylmethyl}-carbamic acid methyl ester] it was 8.39; in that of `COC(=O)N[C@H]1Cc2ccc(NC(=O)c3cccc(C)c3-c3ccc(C(F)(F)F)cc3)cc2C1` [{5-[(6-Methyl-4'-trifluoromethyl-biphenyl-2-carbonyl)-amino]-indan-2-yl}-carbamic acid methyl ester], 9.15.

These data come from BindingDB's records for doi:10.1021/jm010294e (Novartis Institute For Biomedical Reasearch, 2001).
